Experimental data reported in patent US20260226038A1, “NEW COMPOUNDS FOR TREATING STAPHYLOCOCCUS INFECTIONS” (AB2 THERAPEUTICS, S. L., priority 2023, published 2026).
Values after ≈ are worked out from the molar mass of the structure shown.

system: Staphylococcus aureus; test: MIC test, microdilution method (CLSI); assay type: cell-based; settings: ATCC strains of Staphylococcus aureus; 18-20 h at 37° C.; growth inhibited ≥80% compared to growth control
Method: Experimental Procedure: MIC Test. Microdilution Method To evaluate the antimicrobial activity of the compounds, ATCC strains of Staphylococcus aureus were used. The minimal inhibitory concentrations (MICs) of the compounds were determined by microdilution assays, according to CLSI methodology. 3 mg of compound were weighted in a 4 mL glass vials and were dissolved in properly volume of DMSO 100% (Reference: […]-50, Sigma) to reach 12.8 mg/mL (Cmax). In 96-well plates U-form (Reference: 650161, Greiner Bio-One): • Dispense 50 μL of the assayed compounds prepared in DMSO 100% at 12.8 mg/mL in each well in column 1. (8 different compounds per plate, row 1 to row 8) • Dispense 25 μL of DMSO 100% in all wells in columns 2 to 12. • With a multichannel pipette, aspire 25 μL of column 1 and dispense in column 2. Mix the contents in column 2 several times and aspire 25 μL. Dispense in column 3. • Repeat the process until column 10. In column 10, aspire 25 μL of the content and discard. In 96-well plates U-form: • With a multichannel pipette (in dispensing mode), aspire a properly volume (consider the number of copies of the mother plate do you want to perform) of all wells in mother plate, to dispense 1 μL/well in daughter plates. Tecan instrument (FREEDOM EVO 100) was used to make the mother and daughter plates. Bacterial suspension will be prepared and normalized to 0.5 McFarland turbidity standard (aprox. 10^8 CFU/mL) using a physiological saline solution (sodium chloride 0.9%). Then, prepared a 1/1000 dilution (aprox. 10^5 CFU/mL) of the suspension in appropriate media (CLSI Standard) and inoculate 99 μL in each well in daughter plates (only columns 1 to 11) using a MultidropTM Combi Reagent Dispenser. In column 12, only 99 μL of media will be dispense as a sterility control. The final plate map is (all values in μg/mL): Plates will be incubated 18-20 h at 37° C. MIC values will be considered as the concentration of compounds at which the growth will be inhibited=>≥80%, compared to growth control.

| SMILES | MIC |
| --- | --- |
| CCN(C(=O)Cc1noc(CN2C(=O)C(=O)N(CC3CC3)C2=O)n1)c1ccccc1OC [Example 24, 2-(5-((3-(Cyclopropylmethyl)-2,4,5-trioxoimidazolidin-1-yl)methyl)-1,2,4-oxadiazol-3-yl)-N-ethyl-N-(2-methoxyphenyl)acetamide] | 8 µg/mL (≈ 18.1 µM) |
| COc1ccccc1N(CCOCCO)C(=O)Cc1noc(CN2C(=O)C(=O)N(CC3CC3)C2=O)n1 [Example 5, 2-(5-((3-(cyclopropylmethyl)-2,4,5-trioxoimidazolidin-1-yl)methyl)-1,2,4-oxadiazol-3-yl)-N-(2-(2-hydroxyethoxy)ethyl)-N-(2-methoxyphenyl)acetamide] | 32 µg/mL (≈ 63.8 µM) |
| COc1ccccc1N(CCCO)C(=O)Cc1noc(CN2C(=O)C(=O)N(CC3CC3)C2=O)n1 [Example 4, 2-(5-((3-(cyclopropylmethyl)-2,4,5-trioxoimidazolidin-1-yl)methyl)-1,2,4-oxadiazol-3-yl)-N-(3-hydroxypropyl)-N-(2-methoxyphenyl)acetamide] | 16 µg/mL (≈ 33.9 µM) |
| COc1ccccc1N(CCO)C(=O)Cc1noc(CN2C(=O)C(=O)N(CC3CC3)C2=O)n1 [Example 1, 2-(5-((3-(Cyclopropylmethyl)-2,4,5-trioxoimidazolidin-1-yl)methyl)-1,2,4-oxadiazol-3-yl)-N-(2-hydroxyethyl)-N-(2-methoxyphenyl)acetamide] | 4 µg/mL (≈ 8.74 µM) |

The remaining molecules from weak to strong by MIC, led by results:

| MIC | SMILES |
| --- | --- |
| 4 µg/mL (≈ 9.36 µM) | COc1ccccc1N(C)C(=O)Cc1noc(CN2C(=O)C(=O)N(CC3CC3)C2=O)n1 [Example 26, 2-(5-((3-(Cyclopropylmethyl)-2,4,5-trioxoimidazolidin-1-yl)methyl)-1,2,4-oxadiazol-3-yl)-N-(2-methoxyphenyl)-N-methylacetamide] |
| 4 µg/mL (≈ 9.68 µM) | COc1ccccc1NC(=O)Cc1noc(CN2C(=O)C(=O)N(CC3CC3)C2=O)n1 [Example 27, 2-(5-((3-(Cyclopropylmethyl)-2,4,5-trioxoimidazolidin-1-yl)methyl)-1,2,4-oxadiazol-3-yl)-N-(2-methoxyphenyl)acetamide] |
